According to patent publication US12673945B2, “3-((8-((1H-pyrazol-4-yl)amino)imidazo[1,2-a]pyridin-3-yl)ethinyl)-n-phenylbenzamide derivative, method for preparing same, and pharmaceutical composition containing same as active ingredient for prevention or treatment of cancer” (DAEGU-GYEONGBUK MEDICAL INNOVATION FOUNDATION, priority 2020, dated 2026):

Experiments:
Type in all cases: cell-based
KOPM28 cells = assay: human CML cell proliferation inhibition; settings: 72 hours, Cell Counting Kit-8
Protocol: (§1) In order to evaluate the therapeutic effect of the compound according to the present invention on chronic myelogenous leukemia (CML), the following experiment was performed, and the results are shown in Table 6 below. Inhibitory activity to Bcr-Abl kinase was evaluated through the experiment using TCCS and KOPM28 cells, and inhibitory activity to T315I-Bcr-Abl kinase was evaluated through the experiment using T315I-TCCS and T315I-KOPM28 cells.
(§2) Human chronic myelogenous leukemia (CML) cells used in the experiment were TCCS, T315I-TCCS, KOPM28 and T315I-KOPM28, and the four types of cells were provided by University of Yamanashi.
(§3) Four types of human CML cells were each seeded in 96-well plates at the density of 1×10^4/90 μL/well. A culture solution containing 9 concentrations (0.000256 to 100 μM) of each example compound serially diluted in 5 folds or DMSO (control) were added to the plate (10 μL/well) to a final concentration of 0 to 10 μM. The plate was incubated in a 37° C. CO2 incubator for 72 hours.
(§4) After incubation for 72 hours, the plate treated with the compound was treated with Cell Counting Kit-8 (Dojindo Molecular Technologies, Inc) solution at the concentration of 10 μL/well, and then mixed well. Then, the plate was incubated in a CO2 incubator at 37° C. for 2 hours, and absorbance at 450 nm was measured with a microplate reader. Data were expressed as percentage compared to vehicle treated cells and GI50 values were calculated using GraphPad Prism 8.0 (GraphPad software Inc., San Diego).

TCCS cells = assay: human CML cell proliferation inhibition; settings: 72 hours, Cell Counting Kit-8
Protocol: as §1, §2, §3, §4

T315I-TCCS cells = assay: human CML cell proliferation inhibition; settings: 72 hours, Cell Counting Kit-8
Protocol: as §1, §2, §3, §4

T315I-KOPM28 cells = assay: human CML cell proliferation inhibition; settings: 72 hours, Cell Counting Kit-8
Protocol: as §1, §2, §3, §4

Parental (Ba/F3) = assay: Ba/F3 cell proliferation inhibition; settings: BaF3; 72 hours, Cell Counting Kit-8
Protocol: as §3, with “[…] lymphocyte cells, Parental (Ba/F3) and T315I-Bcr-Abl (Ba/F3)” for “Four types of human CML cells”, “were” for “were each”, “(0.015” for “(0.000256”, “3” for “5”, “[…])” for “μL/well)”
as §4, with “5.0” for “8.0”, “Diego) […].” for “Diego).”

T315I-Bcr-Abl (Ba/F3) = assay: Ba/F3 cell proliferation inhibition; settings: BaF3; 72 hours, Cell Counting Kit-8
Protocol: as §3, with “[…] lymphocyte cells, Parental (Ba/F3) and T315I-Bcr-Abl (Ba/F3)” for “Four types of human CML cells”, “were” for “were each”, “(0.015” for “(0.000256”, “3” for “5”, “[…])” for “μL/well)”
as §4, with “5.0” for “8.0”, “Diego) […].” for “Diego).”

Row | GI50 (T315I-Bcr-Abl (Ba/F3)) | SMILES | GI50 (KOPM28 cells) | GI50 (TCCS cells) | GI50 (T315I-TCCS cells) | GI50 (T315I-KOPM28 cells) | GI50 (Parental (Ba/F3))
1 | 50 to 500 nM | Cc1cc(F)c(C(=O)Nc2cc(N3CCN(C)CC3)cc(C(C)(C)C#N)c2)cc1C#Cc1cnc2c(Nc3cnn(C)c3)cccn12 [Example 20, N-(3-(2-cyanopropan-2-yl)-5-(4-methylpiperazin-1-yl)phenyl)-2-fluoro-4-methyl-5-((8-((1-methyl-1H-pyrazol-4-yl)amino)imidazo[1,2-a]pyridin-3-yl)ethynyl)benzamide] | < 10 nM | < 10 nM | 100 nM | > 100 nM | 500 to 5000 nM
2 | 50 to 500 nM | Cc1cc(F)c(C(=O)Nc2cc(N3CCCN(C)CC3)cc(C(C)(C)C#N)c2)cc1C#Cc1cnc2c(Nc3cnn(C)c3)cccn12 [Example 21, N-(3-(2-cyanopropan-2-yl)-5-(4-methyl-1,4-diazepan-1-yl)phenyl)-2-fluoro-4-methyl-5-((8-((1-methyl-1H-pyrazol-4-yl)amino)imidazo[1,2-a]pyridin-3-yl)ethynyl)benzamide] | < 10 nM | < 10 nM | 100 nM | > 100 nM | 500 to 5000 nM
3 | 50 to 500 nM | Cc1cc(F)c(C(=O)Nc2cc(N3CCN(C)C(=O)C3)cc(C(C)(C)C#N)c2)cc1C#Cc1cnc2c(Nc3cnn(C)c3)cccn12 [Example 24, N-(3-(2-cyanopropan-2-yl)-5-(4-methyl-3-oxopiperazin-1-yl)phenyl)-2-fluoro-4-methyl-5-((8-((1-methyl-1H-pyrazol-4-yl)amino)imidazo[1,2-a]pyridin-3-yl)ethynyl)benzamide] | < 10 nM | < 10 nM | 100 nM | 100 nM | 500 to 5000 nM
4 | 50 to 500 nM | Cc1cc(F)c(C(=O)Nc2cc(N3CCC(N4CCN(C)CC4)CC3)cc(C(C)(C)C#N)c2)cc1C#Cc1cnc2c(Nc3cnn(C)c3)cccn12 [Example 25, N-(3-(2-cyanopropan-2-yl)-5-(4-(4-methylpiperazin-1-yl)piperidin-1-yl)phenyl)-2-fluoro-4-methyl-5-((8-((1-methyl-1H-pyrazol-4-yl)amino)imidazo[1,2-a]pyridin-3-yl)ethynyl)benzamide] | < 10 nM | < 10 nM | > 100 nM | 100 nM | 500 to 5000 nM
5 | < 50 nM | Cc1cc(F)c(C(=O)Nc2cc(CN3CCN(C)CC3)cc(C(C)(C)C#N)c2)cc1C#Cc1cnc2c(Nc3cnn(C)c3)cccn12 [Example 27, N-(3-(2-cyanopropan-2-yl)-5-((4-methylpiperazin-1-yl)methyl)phenyl)-2-fluoro-4-methyl-5-((8-((1-methyl-1H-pyrazol-4-yl)amino)imidazo[1,2-a]pyridin-3-yl)ethynyl)benzamide] | < 10 nM | < 10 nM | 100 nM | 100 nM | 500 to 5000 nM
6 | 50 to 500 nM | Cc1cc(F)c(C(=O)Nc2cc(CN3CCOCC3)cc(C(C)(C)C#N)c2)cc1C#Cc1cnc2c(Nc3cnn(C)c3)cccn12 [Example 28, N-(3-(2-cyanopropan-2-yl)-5-(morpholinomethyl)phenyl)-2-fluoro-4-methyl-5-((8-((1-methyl-1H-pyrazol-4-yl)amino)imidazo[1,2-a]pyridin-3-yl)ethynyl)benzamide] | < 10 nM | < 10 nM | > 100 nM | > 100 nM | > 5000 nM
7 | 50 to 500 nM | Cc1cc(F)c(C(=O)Nc2cc(CN3CCCN(C)CC3)cc(C(C)(C)C#N)c2)cc1C#Cc1cnc2c(Nc3cnn(C)c3)cccn12 [Example 30, N-(3-(2-cyanopropan-2-yl)-5-((4-methyl-1,4-diazepan-1-yl)methyl)phenyl)-2-fluoro-4-methyl-5-((8-((1-methyl-1H-pyrazol-4-yl)amino)imidazo[1,2-a]pyridin-3-yl)ethynyl)benzamide] | < 10 nM | < 10 nM | 100 nM | > 100 nM | 500 to 5000 nM

The next lines start with the compound.

Row | SMILES | GI50 (T315I-Bcr-Abl (Ba/F3)) | GI50 (KOPM28 cells) | GI50 (TCCS cells) | GI50 (T315I-TCCS cells) | GI50 (T315I-KOPM28 cells) | GI50 (Parental (Ba/F3))
8 | Cc1cc(F)c(C(=O)Nc2cc(-c3cccnc3)cc(C(C)(C)C#N)c2)cc1C#Cc1cnc2c(Nc3cnn(C)c3)cccn12 [Example 18, N-(3-(2-cyanopropan-2-yl)-5-(pyridin-3-yl)phenyl)-2-fluoro-4-methyl-5-((8-((1-methyl-1H-pyrazol-4-yl)amino)imidazo[1,2-a]pyridin-3-yl)ethynyl)benzamide] | 50 to 500 nM | < 10 nM | < 10 nM | 100 nM | 100 nM | > 5000 nM
9 | Cc1cc(F)c(C(=O)Nc2cc(-c3cnn(C)c3)cc(C(C)(C)C#N)c2)cc1C#Cc1cnc2c(Nc3cnn(C)c3)cccn12 [Example 19, N-(3-(2-cyanopropan-2-yl)-5-(1-methyl-1H-pyrazol-4-yl)phenyl)-2-fluoro-4-methyl-5-((8-((1-methyl-1H-pyrazol-4-yl)amino)imidazo[1,2-a]pyridin-3-yl)ethynyl)benzamide] | 50 to 500 nM | < 10 nM | < 10 nM | 100 nM | > 100 nM | > 5000 nM
10 | Cc1cc(F)c(C(=O)Nc2cc(N(C)CCN(C)C)cc(C(C)(C)C#N)c2)cc1C#Cc1cnc2c(Nc3cnn(C)c3)cccn12 [Example 22, N-(3-(2-cyanopropan-2-yl)-5-((2-(dimethylamino)ethyl)(methyl)amino)phenyl)-2-fluoro-4-methyl-5-((8-((1-methyl-1H-pyrazol-4-yl)amino)imidazo[1,2-a]pyridin-3-yl)ethynyl)benzamide] | 50 to 500 nM | < 10 nM | < 10 nM | 100 nM | 100 nM | 500 to 5000 nM
11 | Cc1cc(F)c(C(=O)Nc2cc(N(C)CCCN(C)C)cc(C(C)(C)C#N)c2)cc1C#Cc1cnc2c(Nc3cnn(C)c3)cccn12 [Example 23, N-(3-(2-cyanopropan-2-yl)-5-((3-(dimethylamino)propyl)(methyl)amino)phenyl)-2-fluoro-4-methyl-5-((8-((1-methyl-1H-pyrazol-4-yl)amino)imidazo[1,2-a]pyridin-3-yl)ethynyl)benzamide] | 50 to 500 nM | < 10 nM | < 10 nM | > 100 nM | > 100 nM | 500 to 5000 nM
12 | Cc1cc(F)c(C(=O)Nc2cc(Oc3ccncc3)cc(C(C)(C)C#N)c2)cc1C#Cc1cnc2c(Nc3cnn(C)c3)cccn12 [Example 26, N-(3-(2-cyanopropan-2-yl)-5-(pyridin-4-yloxy)phenyl)-2-fluoro-4-methyl-5-((8-((1-methyl-1H-pyrazol-4-yl)amino)imidazo[1,2-a]pyridin-3-yl)ethynyl)benzamide] | < 50 nM | < 10 nM | < 10 nM | < 10 nM | 100 nM | > 5000 nM
13 | Cc1cc(F)c(C(=O)Nc2cc(CN3CCC(N(C)C)C3)cc(C(C)(C)C#N)c2)cc1C#Cc1cnc2c(Nc3cnn(C)c3)cccn12 (stereo not drawn) [Example 29, N-(3-(2-cyanopropan-2-yl)-5-((3-(dimethylamino)pyrrolidin-1-yl)methyl)phenyl)-2-fluoro-4-methyl-5-((8-((1-methyl-1H-pyrazol-4-yl)amino)imidazo[1,2-a]pyridin-3-yl)ethynyl)benzamide] | 50 to 500 nM | < 10 nM | < 10 nM | 100 nM | 100 nM | 500 to 5000 nM
